Laboratory results: ChEMBL document CHEMBL1140687, “Quinazoline derivatives as MC-I inhibitors: evaluation of myocardial uptake using Positron Emission Tomography in rat and non-human primate” (Bioorg Med Chem Lett, 2007)
One block for each compound: values may come before it.

Key:
[1] = Inhibition of MC1 by NADH-DB reductase assay; design: species or system Homo sapiens
Lung [2] = assay: Biodistribution in Sprague-Dawley rat lung at 15 uCi, iv after 120 mins; assay type: ADME, organism-based; settings: in vivo, 2 h
Nucleic Acid [3] = assay: Ratio of drug uptake in heart to lung of Sprague-Dawley rat at 30 mins; assay type: ADME; settings: in vivo, 0.5 h
Femur [4] = assay: Biodistribution in Sprague-Dawley rat femur at 15 uCi, iv after 120 mins; assay type: ADME, organism-based; settings: in vivo, 2 h
Kidney [5] = assay: Biodistribution in Sprague-Dawley rat kidney at 15 uCi, iv after 120 mins; assay type: ADME, organism-based; settings: in vivo, 2 h
Spleen [6] = assay: Biodistribution in Sprague-Dawley rat spleen at 15 uCi, iv after 30 mins; assay type: ADME, organism-based; settings: in vivo, 0.5 h
Blood [7] = assay: Biodistribution in Sprague-Dawley rat blood at 15 uCi, iv after 30 mins; assay type: ADME, organism-based; settings: in vivo, 0.5 h
Muscle tissue [8] = assay: Biodistribution in Sprague-Dawley rat muscle at 15 uCi, iv after 120 mins; assay type: ADME, organism-based; settings: in vivo, 2 h
Heart [9] = assay: Biodistribution in Sprague-Dawley rat heart at 15 uCi, iv after 30 mins; assay type: ADME, organism-based; settings: in vivo, 0.5 h
Liver [10] = assay: Biodistribution in Sprague-Dawley rat liver at 15 uCi, iv after 30 mins; assay type: ADME, organism-based; settings: in vivo, 0.5 h
Femur [11] = assay: Biodistribution in Sprague-Dawley rat femur at 15 uCi, iv after 30 mins; assay type: ADME, organism-based; settings: in vivo, 0.5 h
Lung [12] = assay: Biodistribution in Sprague-Dawley rat lung at 15 uCi, iv after 30 mins; assay type: ADME, organism-based; settings: in vivo, 0.5 h
Nucleic Acid [13] = assay: Ratio of drug uptake in heart to liver of Sprague-Dawley rat at 60 mins; assay type: ADME; settings: in vivo, 1 h
Nucleic Acid [14] = assay: Ratio of drug uptake in heart to liver of Sprague-Dawley rat at 30 mins; assay type: ADME; settings: in vivo, 0.5 h
Blood [15] = assay: Biodistribution in Sprague-Dawley rat blood at 15 uCi, iv after 120 mins; assay type: ADME, organism-based; settings: in vivo, 2 h
Rattus norvegicus [16] = assay: Biodistribution in Sprague-Dawley rat urine at 15 uCi, iv after 120 mins; assay type: ADME, organism-based; settings: in vivo, 2 h
Nucleic Acid [17] = assay: Ratio of drug uptake in heart to femur of Sprague-Dawley rat at 60 mins; assay type: ADME; settings: in vivo, 1 h
Rattus norvegicus [18] = assay: Biodistribution in Sprague-Dawley rat urine at 15 uCi, iv after 30 mins; assay type: ADME, organism-based; settings: in vivo, 0.5 h
Spleen [19] = assay: Biodistribution in Sprague-Dawley rat spleen at 15 uCi, iv after 120 mins; assay type: ADME, organism-based; settings: in vivo, 2 h
Muscle tissue [20] = assay: Biodistribution in Sprague-Dawley rat muscle at 15 uCi, iv after 30 mins; assay type: ADME, organism-based; settings: in vivo, 0.5 h
Liver [21] = assay: Biodistribution in Sprague-Dawley rat liver at 15 uCi, iv after 120 mins; assay type: ADME, organism-based; settings: in vivo, 2 h
Heart [22] = assay: Biodistribution in Sprague-Dawley rat heart at 15 uCi, iv after 120 mins; assay type: ADME, organism-based; settings: in vivo, 2 h
Kidney [23] = assay: Biodistribution in Sprague-Dawley rat kidney at 15 uCi, iv after 30 mins; assay type: ADME, organism-based; settings: in vivo, 0.5 h
Nucleic Acid [24] = assay: Ratio of drug uptake in heart to lung of Sprague-Dawley rat at 60 mins; assay type: ADME; settings: in vivo, 1 h

Structure (SMILES): CC(C)(C)c1ccc(CNc2ncnc3ccccc23)cc1
IC50 [1]: 241 nM

Structure (SMILES): OCCCCc1ccc(CCOc2ncnc3ccccc23)cc1
IC50 [1]: 22.4 nM

Structure (SMILES): FCCCCCc1ccc(CCOc2ncnc3ccccc23)cc1
IC50 [1]: 11.3 nM

Structure (SMILES): OCCCCc1ccc(COc2ncnc3ccccc23)cc1
IC50 [1]: 414 nM

Structure (SMILES): [18F]CCCCCc1ccc(CCOc2ncnc3ccccc23)cc1
Drug uptake (Lung [2]): 0.11 % ID/g
Ratio (Nucleic Acid [3]): 11.3
Drug uptake (Femur [4]): 0.65 % ID/g
Drug uptake (Kidney [5]): 0.68 % ID/g
Drug uptake (Spleen [6]): 0.19 % ID/g
Drug uptake (Blood [7]): 0.08 % ID/g
Drug uptake (Muscle tissue [8]): 0.12 % ID/g
Drug uptake (Heart [9]): 3.22 % ID/g
Drug uptake (Liver [10]): 1.29 % ID/g
Drug uptake (Femur [11]): 0.19 % ID/g
Drug uptake (Lung [12]): 0.28 % ID/g
Ratio (Nucleic Acid [13]): 5.7
Ratio (Nucleic Acid [14]): 23
Drug uptake (Blood [15]): 0.06 % ID/g
Drug uptake (Rattus norvegicus [16]): 4.44 % ID/g
Ratio (Nucleic Acid [17]): 3.6
Drug uptake (Rattus norvegicus [18]): 0.5 % ID/g
Drug uptake (Spleen [19]): 0.07 % ID/g
Drug uptake (Muscle tissue [20]): 0.08 % ID/g
Drug uptake (Liver [21]): 0.44 % ID/g
Drug uptake (Heart [22]): 2.5 % ID/g
Drug uptake (Kidney [23]): 1.99 % ID/g
Ratio (Nucleic Acid [24]): 2.5

Structure (SMILES): CC(C)(C)c1ccc(CCOc2ncnc3ccccc23)cc1 [FENAZAQUIN]
IC50 [1]: 4 nM

Next, values leading:

IC50 [1]: 37.5 nM
Structure (SMILES): CCCCc1ccc(CCOc2ncnc3ccccc23)cc1

IC50 [1]: 19.3 nM
Structure (SMILES): CCCC(F)c1ccc(CCOc2ncnc3ccccc23)cc1 (configuration not stated)

IC50 [1]: 1000 nM
Structure (SMILES): CCCCc1ccc(COc2ncnc3ccccc23)cc1

IC50 [1]: 21.7 nM
Structure (SMILES): CCCC(O)c1ccc(CCOc2ncnc3ccccc23)cc1 (configuration not stated)
